Measured values taken from PMC5554537 (Frontiers in Pharmacology, 2017).
Where two headings read alike, the source gives them in different places.

Columns and labels:
[1] = set-up: method as in Anderson et al., 2014; conditions: ref Anderson et al., 2014; cited from earlier work
NIH-III mice [2] = test system: NIH-III mice
Description: SUPPLEMTENTAL TABLE 7. Mouse toxicity of SN30000 and M14: Histopathology […]
Male and female NIH-III mice aged 6-10 weeks were given a single i.p. dose of SN30000 (186, 248 […]
untreated control for each sex, fixed in 10% neutral buffered formalin at room temperature for 24-48 hr, transferred to 70% ethanol and subsequently paraffin embedded, sectioned and H&E stained for light microscopy . The following tissues/organs were examined: skin, testes, eyeball, brain, liver, lung, stomach, duodenum, heart, spleen, pancreas, colon, femur and joint (incl marrow), skeletal muscle (psoas) and kidney. Results are reported only for positive findings.

[3] = Reductive metabolism in liver S9 preparations; type: in vitro ADME, NIH-III mice; conditions: for Rate of reduction to M14: 20 μg/ml protein
Experimental: In vitro hepatic metabolism of SN30000 and M14 was studied using 9,000 g post-mitochondrial supernatants (S9) prepared from livers of female NIH-III mice. Metabolism at 37°C was measured by dilution of S9 to appropriate protein concentrations (measured by BCA protein assay) in sodium/potassium phosphate buffer (67 mM phosphate, pH 7.4) containing 5 mM MgCl2, 1 mM EDTA, 1 mM NADPH, 1 mM NADH and 150 μM test drug. The reaction was terminated by adding an equal volume of ice-cold MeOH and samples were analyzed by LC-MS/MS. Two methods were used to modify the oxygen concentration. Method 1: 96-well plates (reaction volume 0.1 mL/well) were incubated for 30 min on a Eppendorf Thermomixer C (Eppendorf AG, Hamburg, Germany) either under 21% O2 (oxia) or 95% N2/5% CO2 (anoxia) in an anaerobic chamber (Sheldon Manufacturing, Cornelius, OR, United States) as described previously ([Gu et al., 2010]). Method 2: glass vials containing 3 mL final volume were magnetically stirred continuously in a water bath under flowing 5% CO2 containing 0, 0.2, 2, or 20% O2 (certified gas mixtures from BOC Gasses NZ), as detailed previously ([Hicks et al., 2007]), and samples (0.1 mL) were withdrawn at intervals for analysis.
To address whether this reflects an oxygen-sensitive (one-electron reduction) or oxygen-insensitive (two-electron reduction) process, metabolism was compared in NIH-III mouse liver S9 preparations under 20% O2 or anoxia. […] Using low protein concentrations (20 μg/ml) to enable assessment of initial rates, reduction to M14 was similar for anoxic liver S9 preparations from male and female NIH-III mice (10.6 ± 0.2 and 9.2 ± 0.2 nmol/min/mg protein, respectively). […] The liver S9 intrinsic clearance, CLint, was calculated as Vmax/Km for M14 formation under anoxia and scaled to the whole liver based on the (unrealistic) assumption that the liver is entirely anoxic. This upper estimate of in vivo hepatic clearance was then predicted as previously described ([Gu et al., 2011b]) using the free fraction of SN30000 in mouse plasma determined by equilibrium dialysis (Supplementary Table 11).

[4] = plasma
Experimental: SN30000, M14 and M18 dosing solutions were prepared fresh in normal saline, filtered through 0.45 μm Acrodisc filters (Pall Life Sciences, Port Washington, NY, United States), protected from light in amber vials, and used within 3 h. Doses are expressed as mg of free base equivalent for SN30000 and M14, and free acid in the case of M18. […] For evaluation of acute toxicity, mice were observed continuously for 3 h after dosing, and their activity rated on a lethargy score from 0 representing no change in activity to 5 representing animals that were moribund and required culling. For MTD studies, the animals were checked daily for clinical signs of toxicity and body weight change for 2 weeks. In some studies rectal temperature changes after dosing were measured using a BAT-12 digital microprobe thermometer (Physitemp Instruments, Clifton, NJ, United States) at the times specified in the figures. Blood samples were collected from mice at various times by cardiac puncture, seconds after cervical dislocation, into ice-cold tubes containing K2EDTA. These were placed on ice immediately after collection and centrifuged (3,000 g, 3 min) within 10 min to harvest plasma. Plasma and tissues were rapidly frozen in liquid nitrogen before storage at -80°C for subsequent bioanalysis.
Concentration-time data were analyzed by non-compartmental analysis using Phoenix WinNonlin (ver 6.4, Build 6.4.0768 Pharsight, United States); all AUC values were extrapolated to infinity using the linear trapezoidal rule. A compartmental model for plasma PK after dosing with SN30000 or M14 was fitted using Phoenix NLME v1.3 with random effects on the metabolite volumes of distribution, and temperature effects based on the observed body temperature at the last measurement time. Temperature effects were added or removed until there was no significant change in the log likelihood. Model fits were further assessed by visual inspection of the residuals and predicted PK.

NIH-III mice [5] = test system: NIH-III mice; set-up: method as in Gu et al., 2014; conditions: ref Gu et al., 2014, cited from earlier work; for Survival: 14 days
HT29 tumor cells = test system: HT29 tumor cells; set-up: method as in Hicks et al., 2010; conditions: stirred suspensions of HT29 tumor cells; ref Hicks et al., 2010; cited from earlier work

[O-][n+]1nc(CCCN2CCOCC2)nc2cc3c(cc21)CCC3 [M14]
One-electron reduction potential, lower than SN30000 by [1]: 70 mV

[O-][n+]1nc(CCCN2CCOCC2)[n+]([O-])c2cc3c(cc21)CCC3 [SN30000, 3-(3-Morpholinopropyl)-7,8-dihydro-6H-indeno[5,6-e][1,2,4]triazine 1,4-dioxide]
Histopathology findings, Kidney (NIH-III mice [2]; 186 mg/kg i.p., female, 3 examined): Basophilic cortical tubules (2); karyomegaly in tubular epithelium (3); tubular epithelial necrosis (3) | Histopathology findings, Kidney (NIH-III mice [2]; 248 mg/kg i.p., female, 2 examined): Basophilic cortical tubules (2); karyomegaly in tubular epithelium (2); tubular epithelial necrosis (2) | Histopathology findings, Testes (NIH-III mice [2]; 248 mg/kg i.p., male, 1 examined): Degeneration of germinal epithelium (1) | Histopathology findings, Kidney (NIH-III mice [2]; 248 mg/kg i.p., male, 2 examined): Basophilic cortical tubules (1); karyomegaly in tubular epithelium (1); tubular epithelial necrosis (1) | Histopathology findings, Kidney (NIH-III mice [2]; 331 mg/kg i.p., male, 1 examined): Basophilic cortical tubules (1); karyomegaly in tubular epithelium (1); tubular epithelial necrosis (1) | Rate of reduction to M14 ([3]; anoxic liver S9 from female mice): 9.2 ± 0.2 nmol/min/mg protein | Rate of reduction to M14 ([3]; anoxic liver S9 from male mice): 10.6 ± 0.2 nmol/min/mg protein | Vmax for formation of M14 ([3]; anoxic mouse liver S9): 71 ± 2 nmol/min/mg protein | Predicted hepatic clearance ([3]; dispersion model): 4.69 L/h/kg | Km ([3]; female, NIH-III, liver S9 (9,000 g post-mitochondrial supernatant), pH 7.4, anoxic mouse liver S9, read-out: Apparent Km for formation of M14): 974 ± 71 µM | Predicted hepatic clearance ([3]; parallel tube model): 5.01 L/h/kg | Predicted hepatic clearance ([3]; well-stirred model, from anoxic S9 CLint, liver assumed entirely anoxic): 3.91 L/h/kg | Apparent Cl ([4]; i.p. SN30000 1.86 mg/kg): 33.2 L/h/kg | Apparent Cl ([4]; i.p. SN30000 18.6 mg/kg): 26.8 L/h/kg | Apparent Cl ([4]; i.p. SN30000 78.3 mg/kg): 7.54 L/h/kg | Apparent Cl ([4]; i.p. SN30000 92.8 mg/kg): 5.70 L/h/kg | Apparent Cl ([4]; i.p. SN30000 186 mg/kg): 3.55 L/h/kg | Survival (NIH-III mice [5]; female, 562 µmol/kg i.p.): 6/6 | Body weight nadir, Day (NIH-III mice [5]; female, 562 µmol/kg i.p.): 1 | Body weight nadir, Weight loss (NIH-III mice [5]; female, 562 µmol/kg i.p.): 8.4 ± 1.7% | Survival (NIH-III mice [5]; female, 750 µmol/kg i.p.): 1/2 | Body weight nadir, Day (NIH-III mice [5]; female, 750 µmol/kg i.p.): 2 | Body weight nadir, Weight loss (NIH-III mice [5]; female, 750 µmol/kg i.p.): 14.4% | Survival (NIH-III mice [5]; female, 1000 µmol/kg i.p.): 0/1 | Survival (NIH-III mice [5]; male, 562 µmol/kg i.p.): 7/7 | Body weight nadir, Day (NIH-III mice [5]; male, 562 µmol/kg i.p.): 1 | Body weight nadir, Weight loss (NIH-III mice [5]; male, 562 µmol/kg i.p.): 4.2 ± 1.2% | Survival (NIH-III mice [5]; male, 750 µmol/kg i.p.): 2/3 | Body weight nadir, Day (NIH-III mice [5]; male, 750 µmol/kg i.p.): 1 | Body weight nadir, Weight loss (NIH-III mice [5]; male, 750 µmol/kg i.p.): 12.1 ± 3.8% | Survival (NIH-III mice [5]; male, 1000 µmol/kg i.p.): 1/2 | Body weight nadir, Day (NIH-III mice [5]; male, 1000 µmol/kg i.p.): 1 | Body weight nadir, Weight loss (NIH-III mice [5]; male, 1000 µmol/kg i.p.): 13.3% | Survival (NIH-III mice [5]; male, 1333 µmol/kg i.p.): 1/2 | Body weight nadir, Day (NIH-III mice [5]; male, 1333 µmol/kg i.p.): 1 | Body weight nadir, Weight loss (NIH-III mice [5]; male, 1333 µmol/kg i.p.): 11.6% | O2 in solution for 50% inhibition of cytotoxicity (HT29 tumor cells): 1.14 ± 0.24 µM
